The assay concerns the target T1, BRM (Homo sapiens, UniProt P51531).
T1 construct: In-Cell Western Screen of BRM Degradation in SW1573 Cells; endogenous in cells; host or cells: SW1573
The assay can be described thus: In-cell Western screen of BRM degradation in SW1573 cells (Dmax and DC50). It is filed as cell-based. The conditions noted are these: BRM degradation, SW1573 cells; for DC50: read-out: DC50; for Dmax: tested at the top concentration of between 0.3 and 10 μM, read-out: Dmax (%) (% degraded). A digest of the protocol: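 BRM levels were read by LI-COR in-cell Western after two-channel (800/680 nm) immunostaining of fixed, Triton-permeabilised SW1573 cells.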

T1 sequence (P51531 whole entry): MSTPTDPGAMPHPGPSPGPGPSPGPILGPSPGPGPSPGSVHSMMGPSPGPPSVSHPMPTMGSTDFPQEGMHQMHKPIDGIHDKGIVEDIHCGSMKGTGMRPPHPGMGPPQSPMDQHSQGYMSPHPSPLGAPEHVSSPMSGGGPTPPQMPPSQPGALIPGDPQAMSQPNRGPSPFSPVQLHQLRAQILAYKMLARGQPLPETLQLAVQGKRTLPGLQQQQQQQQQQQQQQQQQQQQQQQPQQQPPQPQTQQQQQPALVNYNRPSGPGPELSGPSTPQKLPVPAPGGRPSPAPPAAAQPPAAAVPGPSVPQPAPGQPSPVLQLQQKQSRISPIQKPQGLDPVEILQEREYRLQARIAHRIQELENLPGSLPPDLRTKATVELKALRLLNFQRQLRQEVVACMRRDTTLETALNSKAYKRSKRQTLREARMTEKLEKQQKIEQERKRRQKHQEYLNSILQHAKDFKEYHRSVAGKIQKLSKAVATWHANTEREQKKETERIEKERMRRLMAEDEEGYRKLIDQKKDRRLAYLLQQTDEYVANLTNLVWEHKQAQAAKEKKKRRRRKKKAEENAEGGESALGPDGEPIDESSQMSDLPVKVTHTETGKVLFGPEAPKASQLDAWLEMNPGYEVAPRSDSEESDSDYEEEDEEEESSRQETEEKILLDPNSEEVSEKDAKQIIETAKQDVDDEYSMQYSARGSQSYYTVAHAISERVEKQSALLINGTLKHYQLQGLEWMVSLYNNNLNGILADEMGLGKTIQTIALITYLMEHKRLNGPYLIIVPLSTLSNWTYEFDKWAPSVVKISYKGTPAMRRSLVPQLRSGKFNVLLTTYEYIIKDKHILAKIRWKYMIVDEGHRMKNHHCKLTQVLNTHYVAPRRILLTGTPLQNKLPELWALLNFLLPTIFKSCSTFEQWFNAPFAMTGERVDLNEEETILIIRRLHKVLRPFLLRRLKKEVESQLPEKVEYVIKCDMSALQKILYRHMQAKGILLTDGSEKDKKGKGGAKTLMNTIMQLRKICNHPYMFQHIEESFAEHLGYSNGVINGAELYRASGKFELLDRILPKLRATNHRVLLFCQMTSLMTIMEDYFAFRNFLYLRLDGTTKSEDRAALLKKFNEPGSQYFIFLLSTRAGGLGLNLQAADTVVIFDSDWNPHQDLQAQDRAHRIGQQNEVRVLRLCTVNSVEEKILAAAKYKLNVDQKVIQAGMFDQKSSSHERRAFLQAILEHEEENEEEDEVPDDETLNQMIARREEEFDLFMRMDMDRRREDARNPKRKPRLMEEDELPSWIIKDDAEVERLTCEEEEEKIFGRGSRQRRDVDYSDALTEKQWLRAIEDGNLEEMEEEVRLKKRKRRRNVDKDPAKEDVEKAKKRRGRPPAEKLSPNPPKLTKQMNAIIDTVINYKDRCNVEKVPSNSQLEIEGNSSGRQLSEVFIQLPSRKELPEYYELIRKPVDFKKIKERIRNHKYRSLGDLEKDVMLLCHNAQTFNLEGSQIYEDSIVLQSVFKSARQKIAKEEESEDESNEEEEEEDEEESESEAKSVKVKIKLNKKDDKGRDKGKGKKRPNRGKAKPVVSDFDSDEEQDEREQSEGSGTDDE

As usually defined, the DC50 is the midpoint of the concentration-degradation curve. A word on the Dmax: it is the greatest extent of degradation seen. For `Cc1ncsc1-c1ccc([C@H](C)NC(=O)[C@@H]2C[C@@H](O)CN2C(=O)[C@H](c2cc(OCCN3CCC(O[C@H]4C[C@H](Oc5cc(N6C7CCC6CN(c6cc(-c8ccccc8O)nnc6N)C7)ccn5)C4)CC3)no2)C(C)C)c(F)c1` [compound 239, (2S,4R)-1-((2S)-2-(3-(2-(4-((1r,3S)-3-((4-(3-(3-amino-6-(2-hydroxyphenyl)pyridazin-4-yl)-3,8-diazabicyclo[3.2.1]octan-8-yl)pyridin-2-yl)oxy)cyclobutoxy)piperidin-1-yl)ethoxy)isoxazol-5-yl)-3-methylbutanoyl)-N-((S)-1-(2-fluoro-4-(4-methylthiazol-5-yl)phenyl)ethyl)-4-hydroxypyrrolidine-2-carboxamide], the DC50 is greater than 30 nM and the maximal degradation (Dmax) was greater than 75%.

As to `Cc1ncsc1-c1ccc([C@H](C)NC(=O)[C@@H]2C[C@@H](O)CN2C(=O)[C@@H](c2cc(OCCN3CCC(O[C@H]4C[C@H](Oc5cc(N6C7CCC6CN(c6cc(-c8ccccc8O)nnc6N)C7)ccn5)C4)CC3)no2)C(C)C)c(F)c1` [compound 240, (2S,4R)-1-((2R)-2-(3-(2-(4-((1r,3R)-3-((4-(3-(3-amino-6-(2-hydroxyphenyl)pyridazin-4-yl)-3,8-diazabicyclo[3.2.1]octan-8-yl)pyridin-2-yl)oxy)cyclobutoxy)piperidin-1-yl)ethoxy)isoxazol-5-yl)-3-methylbutanoyl)-N-((S)-1-(2-fluoro-4-(4-methylthiazol-5-yl)phenyl)ethyl)-4-hydroxypyrrolidine-2-carboxamide], the DC50 was less than 2.5 nM and the Dmax is greater than 75%.

For the molecule `Cc1ncsc1-c1ccc([C@H](C)NC(=O)[C@@H]2C[C@@H](O)CN2C(=O)[C@H](c2cc(O[C@H]3C[C@H](CN4CCC(O[C@H]5C[C@H](Oc6cc(N7C8CCC7CN(c7cc(-c9ccccc9O)nnc7N)C8)ccn6)C5)CC4)C3)no2)C(C)C)cc1` [compound 241, (2S,4R)-1-((2S)-2-(3-((1R,3S)-3-((4-((1r,3R)-3-((4-(3-(3-amino-6-(2-hydroxyphenyl)pyridazin-4-yl)-3,8-diazabicyclo[3.2.1]octan-8-yl)pyridin-2-yl)oxy)cyclobutoxy)piperidin-1-yl)methyl)cyclobutoxy)isoxazol-5-yl)-3-methylbutanoyl)-4-hydroxy-N-((S)-1-(4-(4-methylthiazol-5-yl)phenyl)ethyl)pyrrolidine-2-carboxamide], the DC50 was in the range of 2.5 to 10 nM and the Dmax is greater than 75%.

Take `Cc1ncsc1-c1ccc([C@H](C)NC(=O)[C@@H]2C[C@@H](O)CN2C(=O)[C@@H](c2cc(O[C@H]3C[C@H](CN4CCC(O[C@H]5C[C@H](Oc6cc(N7C8CCC7CN(c7cc(-c9ccccc9O)nnc7N)C8)ccn6)C5)CC4)C3)no2)C(C)C)cc1` [compound 242, (2S,4R)-1-((2R)-2-(3-((1R,3R)-3-((4-((1r,3R)-3-((4-(3-(3-amino-6-(2-hydroxyphenyl)pyridazin-4-yl)-3,8-diazabicyclo[3.2.1]octan-8-yl)pyridin-2-yl)oxy)cyclobutoxy)piperidin-1-yl)methyl)cyclobutoxy)isoxazol-5-yl)-3-methylbutanoyl)-4-hydroxy-N-((S)-1-(4-(4-methylthiazol-5-yl)phenyl)ethyl)pyrrolidine-2-carboxamide]: the half-maximal degradation concentration (DC50) is less than 2.5 nM and the Dmax is greater than 75%.

For `Cc1ncsc1-c1ccc([C@H](NC(=O)[C@@H]2C[C@@H](O)CN2C(=O)[C@@H](c2cc(OCCN3CCC(O[C@H]4C[C@H](Oc5cc(N6C7CCC6CN(c6cc(-c8ccccc8O)nnc6N)C7)ccn5)C4)CC3)no2)C(C)C)C(F)F)cn1` [compound 243, (2S,4R)-1-((2R)-2-(3-(2-(4-((1r,3R)-3-((4-(3-(3-amino-6-(2-hydroxyphenyl)pyridazin-4-yl)-3,8-diazabicyclo[3.2.1]octan-8-yl)pyridin-2-yl)oxy)cyclobutoxy)piperidin-1-yl)ethoxy)isoxazol-5-yl)-3-methylbutanoyl)-N-((S)-2,2-difluoro-1-(6-(4-methylthiazol-5-yl)pyridin-3-yl)ethyl)-4-hydroxypyrrolidine-2-carboxamide], the DC50 is less than 2.5 nM and the greatest degradation seen (Dmax) is greater than 75%.

For `Cc1ncsc1-c1ccc([C@@H](NC(=O)[C@@H]2C[C@@H](O)CN2C(=O)[C@@H](c2cc(OCCN3CCC(O[C@H]4C[C@H](Oc5cc(N6C7CCC6CN(c6cc(-c8ccccc8O)nnc6N)C7)ccn5)C4)CC3)no2)C(C)C)C(F)F)cn1` [compound 244, (2S,4R)-1-((2R)-2-(3-(2-(4-((1r,3R)-3-((4-(3-(3-amino-6-(2-hydroxyphenyl)pyridazin-4-yl)-3,8-diazabicyclo[3.2.1]octan-8-yl)pyridin-2-yl)oxy)cyclobutoxy)piperidin-1-yl)ethoxy)isoxazol-5-yl)-3-methylbutanoyl)-N-((R)-2,2-difluoro-1-(6-(4-methylthiazol-5-yl)pyridin-3-yl)ethyl)-4-hydroxypyrrolidine-2-carboxamide], the DC50 was less than 2.5 nM and the greatest degradation seen (Dmax) was greater than 75%.

Regarding `Cc1ncsc1-c1ccc([C@@H](NC(=O)[C@@H]2C[C@@H](O)CN2C(=O)[C@H](c2cc(OCCN3CCN(CCOc4cc(N5C6CCC5CN(c5cc(-c7ccccc7O)nnc5N)C6)ccn4)CC3)no2)C(C)C)C(=O)N(C)C2CCC2)cc1` [compound 245, (2S,4R)-1-((2S)-2-(3-(2-(4-(2-((4-(3-(3-amino-6-(2-hydroxyphenyl)pyridazin-4-yl)-3,8-diazabicyclo[3.2.1]octan-8-yl)pyridin-2-yl)oxy)ethyl)piperazin-1-yl)ethoxy)isoxazol-5-yl)-3-methylbutanoyl)-N-((R)-2-(cyclobutyl(methyl)amino)-1-(4-(4-methylthiazol-5-yl)phenyl)-2-oxoethyl)-4-hydroxypyrrolidine-2-carboxamide], the half-maximal degradation concentration (DC50) is 2.5 to 10 nM and the Dmax was greater than 75%.

`Cc1ncsc1-c1ccc([C@@H](NC(=O)[C@@H]2C[C@@H](O)CN2C(=O)[C@@H](c2cc(OCCN3CCN(CCOc4cc(N5C6CCC5CN(c5cc(-c7ccccc7O)nnc5N)C6)ccn4)CC3)no2)C(C)C)C(=O)N(C)C2CCC2)cc1` [compound 246, (2S,4R)-1-((2R)-2-(3-(2-(4-(2-((4-(3-(3-amino-6-(2-hydroxyphenyl)pyridazin-4-yl)-3,8-diazabicyclo[3.2.1]octan-8-yl)pyridin-2-yl)oxy)ethyl)piperazin-1-yl)ethoxy)isoxazol-5-yl)-3-methylbutanoyl)-N-((R)-2-(cyclobutyl(methyl)amino)-1-(4-(4-methylthiazol-5-yl)phenyl)-2-oxoethyl)-4-hydroxypyrrolidine-2-carboxamide]: the DC50 is less than 2.5 nM and the Dmax was greater than 75%.

Consider `CC(C)[C@H](C(=O)N1C[C@H](O)C[C@H]1C(=O)N[C@@H](C)c1ccc(C(F)(F)F)cc1)c1cc(OCCN2CCC(O[C@H]3C[C@H](Oc4cc(N5C6CCC5CN(c5cc(-c7ccccc7O)nnc5N)C6)ccn4)C3)CC2)no1` [compound 247, (2S,4R)-1-((2S)-2-(3-(2-(4-((1r,3S)-3-((4-(3-(3-amino-6-(2-hydroxyphenyl)pyridazin-4-yl)-3,8-diazabicyclo[3.2.1]octan-8-yl)pyridin-2-yl)oxy)cyclobutoxy)piperidin-1-yl)ethoxy)isoxazol-5-yl)-3-methylbutanoyl)-4-hydroxy-N-((S)-1-(4-(trifluoromethyl)phenyl)ethyl) pyrrolidine-2-carboxamide], for which the 50% degradation concentration (DC50) is greater than 30 nM.

As to `CC(C)[C@@H](C(=O)N1C[C@H](O)C[C@H]1C(=O)N[C@@H](C)c1ccc(C(F)(F)F)cc1)c1cc(OCCN2CCC(O[C@H]3C[C@H](Oc4cc(N5C6CCC5CN(c5cc(-c7ccccc7O)nnc5N)C6)ccn4)C3)CC2)no1` [compound 248, (2S,4R)-1-((2R)-2-(3-(2-(4-((1r,3R)-3-((4-(3-(3-amino-6-(2-hydroxyphenyl)pyridazin-4-yl)-3,8-diazabicyclo[3.2.1]octan-8-yl)pyridin-2-yl)oxy)cyclobutoxy)piperidin-1-yl)ethoxy)isoxazol-5-yl)-3-methylbutanoyl)-4-hydroxy-N-((S)-1-(4-(trifluoromethyl)phenyl)ethyl) pyrrolidine-2-carboxamide], the 50% degradation concentration (DC50) is greater than 30 nM.

`Cc1ncsc1-c1ccc([C@H](C)NC(=O)[C@@H]2C[C@@H](O)CN2C(=O)[C@H](c2cc(OCCCC#Cc3ccc(O[C@H]4C[C@H](Oc5cc(N6C7CCC6CN(c6cc(-c8ccccc8O)nnc6N)C7)ccn5)C4)cn3)no2)C(C)C)cc1` [compound 249, (2S,4R)-1-((2S)-2-(3-((5-(5-((1r,3r)-3-((4-(3-(3-amino-6-(2-hydroxyphenyl)pyridazin-4-yl)-3,8-diazabicyclo[3.2.1]octan-8-yl)pyridin-2-yl)oxy)cyclobutoxy)pyridin-2-yl)pent-4-yn-1-yl)oxy)isoxazol-5-yl)-3-methylbutanoyl)-4-hydroxy-N-((S)-1-(4-(4-methylthiazol-5-yl)phenyl)ethyl)pyrrolidine-2-carboxamide]: the half-maximal degradation concentration (DC50) is greater than 30 nM and the greatest degradation seen (Dmax) was greater than 75%.

With `Cc1ncsc1-c1ccc([C@H](C)NC(=O)[C@@H]2C[C@@H](O)CN2C(=O)[C@@H](c2cc(OCCCC#Cc3ccc(O[C@H]4C[C@H](Oc5cc(N6C7CCC6CN(c6cc(-c8ccccc8O)nnc6N)C7)ccn5)C4)cn3)no2)C(C)C)cc1` [compound 250, (2S,4R)-1-((2R)-2-(3-((5-(5-((1r,3r)-3-((4-(3-(3-amino-6-(2-hydroxyphenyl)pyridazin-4-yl)-3,8-diazabicyclo[3.2.1]octan-8-yl)pyridin-2-yl)oxy)cyclobutoxy)pyridin-2-yl)pent-4-yn-1-yl)oxy)isoxazol-5-yl)-3-methylbutanoyl)-4-hydroxy-N-((S)-1-(4-(4-methylthiazol-5-yl)phenyl)ethyl)pyrrolidine-2-carboxamide], the DC50 was less than 2.5 nM and the Dmax was greater than 75%.

Values taken from US12539292B2, “BRM targeting compounds and associated methods of use” (Arvinas Operations, Inc., priority 2018, dated 2026).
